Laboratory results as given in ChEMBL document CHEMBL1268974, “Synthesis and antitumour activity of glycyrrhetinic acid derivatives” (Bioorg Med Chem, 2010).

Experiments:
Type in all cases: functional, cell-based
8505C = assay: Cytotoxicity against human 8505C cells after 96 hrs by SRB assay; conditions: Homo sapiens, 8505C, 96 h
[1] = Cytotoxicity against human A253 cells after 96 hrs by SRB assay; conditions: Homo sapiens, A253, 96 h
A2780 = assay: Cytotoxicity against human A2780 cells after 96 hrs by SRB assay; conditions: Homo sapiens, A2780, 96 h
A549 = assay: Cytotoxicity against human A549 cells after 96 hrs by SRB assay; conditions: Homo sapiens, A549, 96 h
DLD-1 = assay: Cytotoxicity against human DLD1 cells after 96 hrs by SRB assay; conditions: Homo sapiens, DLD-1, 96 h
[2] = Cytotoxicity against human Lipo cells after 96 hrs by SRB assay; conditions: Homo sapiens, Lipo, 96 h
MCF7 = assay: Cytotoxicity against human MCF7 cells after 96 hrs by SRB assay; conditions: Homo sapiens, MCF7, 96 h
SW-1736 = assay: Cytotoxicity against human SW1736 cells after 96 hrs by SRB assay; conditions: Homo sapiens, SW-1736, 96 h

COC(=O)[C@@]1(C)CC[C@]2(C)CC[C@]3(C)C(=CC(=O)[C@@H]4[C@@]5(C)CC[C@H](OC(=O)CCN)C(C)(C)[C@@H]5CC[C@]43C)[C@@H]2C1
IC50 (8505C): 2.55 µM
IC50 [1]: 2.5 µM
IC50 (A2780): 1.72 µM
IC50 (A549): 2.4 µM
IC50 (DLD-1): 2.51 µM
IC50 [2]: 2.52 µM
IC50 (MCF7): 2.5 µM
IC50 (SW-1736): 1.82 µM

CC1(C)[C@@H](OC(=O)CCN)CC[C@]2(C)[C@H]3C(=O)C=C4[C@@H]5C[C@@](C)(C(=O)OCc6ccccc6)CC[C@]5(C)CC[C@@]4(C)[C@]3(C)CC[C@@H]12
IC50 (8505C): 3.19 µM
IC50 [1]: 3.05 µM
IC50 (A2780): 1.73 µM
IC50 (A549): 2.76 µM
IC50 (DLD-1): 4.54 µM
IC50 [2]: 3.25 µM

CC1(C)[C@@H](OC(=O)CN)CC[C@]2(C)[C@H]3C(=O)C=C4[C@@H]5C[C@@](C)(C(=O)O)CC[C@]5(C)CC[C@@]4(C)[C@]3(C)CC[C@@H]12
IC50 (8505C): > 30 µM
IC50 [1]: > 30 µM
IC50 (A2780): > 30 µM
IC50 (A549): > 30 µM
IC50 (DLD-1): > 30 µM
IC50 [2]: > 30 µM

CC1(C)[C@@H](OC(=O)CN)CC[C@]2(C)[C@H]3C(=O)C=C4[C@@H]5C[C@@](C)(C(=O)OCc6ccccc6)CC[C@]5(C)CC[C@@]4(C)[C@]3(C)CC[C@@H]12
IC50 (8505C): 4.79 µM
IC50 [1]: 5.03 µM
IC50 (A2780): 3.54 µM
IC50 (A549): 5.07 µM
IC50 (DLD-1): 4.54 µM
IC50 [2]: 4.81 µM

C[C@H](N)C(=O)O[C@H]1CC[C@]2(C)[C@H]3C(=O)C=C4[C@@H]5C[C@@](C)(C(=O)OCc6ccccc6)CC[C@]5(C)CC[C@@]4(C)[C@]3(C)CC[C@H]2C1(C)C
IC50 (8505C): 3.1 µM
IC50 [1]: 3.49 µM
IC50 (A2780): 2.85 µM
IC50 (A549): 3.51 µM
IC50 (DLD-1): 5.02 µM
IC50 [2]: 3.57 µM

CC(C)OC(=O)[C@@]1(C)CC[C@]2(C)CC[C@]3(C)C(=CC(=O)[C@@H]4[C@@]5(C)CC[C@H](OC(=O)CCN)C(C)(C)[C@@H]5CC[C@]43C)[C@@H]2C1
IC50 (8505C): 1.96 µM
IC50 [1]: 2.68 µM
IC50 (A2780): 1.31 µM
IC50 (A549): 1.78 µM
IC50 (DLD-1): 3.52 µM
IC50 [2]: 3.49 µM

CCOC(=O)[C@@]1(C)CC[C@]2(C)CC[C@]3(C)C(=CC(=O)[C@@H]4[C@@]5(C)CC[C@H](OC(=O)CCN)C(C)(C)[C@@H]5CC[C@]43C)[C@@H]2C1
IC50 (8505C): 2.32 µM
IC50 [1]: 2.23 µM
IC50 (A2780): 1.77 µM
IC50 (A549): 2.18 µM
IC50 (DLD-1): 2.74 µM
IC50 [2]: 2.38 µM

CCOC(=O)[C@@]1(C)CC[C@]2(C)CC[C@]3(C)C(=CC(=O)[C@@H]4[C@@]5(C)CC[C@H](OC(=O)CN)C(C)(C)[C@@H]5CC[C@]43C)[C@@H]2C1
IC50 (8505C): 5.32 µM
IC50 [1]: 3.59 µM
IC50 (A2780): 3.9 µM
IC50 (A549): 5.39 µM
IC50 (DLD-1): 5.61 µM
IC50 [2]: 4.32 µM

C[C@H](N)C(=O)O[C@H]1CC[C@]2(C)[C@H]3C(=O)C=C4[C@@H]5C[C@@](C)(C(=O)O)CC[C@]5(C)CC[C@@]4(C)[C@]3(C)CC[C@H]2C1(C)C
IC50 (8505C): > 30 µM
IC50 [1]: > 30 µM
IC50 (A2780): > 30 µM
IC50 (A549): > 30 µM
IC50 (DLD-1): > 30 µM
IC50 [2]: > 30 µM

CC(C)OC(=O)[C@@]1(C)CC[C@]2(C)CC[C@]3(C)C(=CC(=O)[C@@H]4[C@@]5(C)CC[C@H](OC(=O)CN)C(C)(C)[C@@H]5CC[C@]43C)[C@@H]2C1
IC50 (8505C): 2.76 µM
IC50 [1]: 2.01 µM
IC50 (A2780): 2.24 µM
IC50 (A549): 2.65 µM
IC50 (DLD-1): 2.54 µM
IC50 [2]: 2.74 µM

CC1(C)[C@@H](OC(=O)CCN)CC[C@]2(C)[C@H]3C(=O)C=C4[C@@H]5C[C@@](C)(C(=O)O)CC[C@]5(C)CC[C@@]4(C)[C@]3(C)CC[C@@H]12
IC50 (8505C): > 30 µM
IC50 [1]: > 30 µM
IC50 (A2780): > 30 µM
IC50 (A549): > 30 µM
IC50 (DLD-1): > 30 µM
IC50 [2]: > 30 µM
